Results published in ChEMBL document CHEMBL1150746, “Native American food and medicinal plants, 8. Water-soluble constituents of Lomatium dissectum” (1988).

Tested on: Xanthomonas campestris
Assay: Antimicrobial activity against Xanthomonas campestris at 0.5 mg/disk
Format: functional

## O=c1cc(-c2ccc(O)c(O)c2)oc2cc(O[C@@H]3O[C@H](CO)[C@@H](O)[C@H](O)[C@H]3O)cc(O)c12 [GALUTEOLIN]
  inhibition zone (IZ): 3 mm
